US8895504B2, “Amylin derivatives” (priority 2008, dated 2014)
pEC50: −log10 of the molar value. *1 amine or outer side, *2 acyl side, *3 side chain or, on linkers, in order; H or OH if unused. Where a SMILES comes first, the peptide text is derived from it. Bridges are numbered along the chain shown (N, C = ends). The star is where a group is joined. C20 diacid = O=C(O)CCCCCCCCCCCCCCCCCCC(=O)*; γGlu = O=C(O)[C@H](CCC(=O)[*:2])N[*:1]

Target: T1, Amylin 3(a) receptor (human calcitonin receptor (CTa) and RAMP-3) (Homo sapiens, UniProt O60896+P30988)
T1 construct: expressed in transfected cells; host or cells: BHK570 cells, stably transfected with a CRE-luciferase reporter
Assay: Luciferase assay (III), BHK Amylin 3(a)//CRE-luc cells
Type: cell-based
Conditions: BHK cells with Amylin 3(a) receptor and CRE luciferase reporter, 4 hours incubation; read-out: Potency Luciferase
Description: It has previously been published (Poyner D R et al 2002, Pharmacological Reviews 54(2) 233-246) that activation of Amylin receptors (coexpression of Calcitonin receptor and receptor activity modifying peptides RAMPs) by Amylin leads to an increase in the intracellular concentration of cAMP. Consequently, transcription is activated at promoters containing multiple copies of the cAMP response element (CRE). It is thus possible to measure Amylin activity by use of a CRE luciferase reporter gene introduced into BHK cells also expressing an Amylin receptor.
2. Construction of an Amylin 3(a)/CRE-luc Cell Line
A BHK570 cell line stably transfected with the human calcitonin receptor (CTa) and a CRE-responsive luciferase reportergene. The cell line was further transfected with RAMP-3, using standard methods. This turns the Calcitonin receptor into an Amylin 3(a) receptor. Methotrexate, Neomycin, and Hygromycin are selection markers for luciferase, the Calcitonin receptor, and RAMP-3, respectively.
3. Amylin Luciferase Assay
To perform activity assays, BHK Amylin 3(a)//CRE-luc cells were seeded in white 96 well culture plates at a density of about 20,000 cells/well. The cells were in 100 μl growth medium (DMEM with 10% FBS, 1% Pen/Strep, 1 mM Na-pyruvate, 250 nM Methotrexate, 500 μg/ml Neomycin, and 400 μg/ml Hygromycin). After incubation overnight at 37° C. and 5% CO2, the growth medium was replaced by 50 μl/well assay medium (DMEM (without phenol red), Glumamax™, 10% FBS, and 10 mM Hepes, pH 7,4). Further, 50 μl/well of standard or sample in assay buffer were added. After 4 hours incubation at 37° C. and 5% CO2, the assay medium with standard or sample were removed and replaced by 100 μl/well PBS. Further, 100 μl/well LucLite™ was added. The plates were sealed and incubated at room temperature for 30 minutes. Finally, luminescence was measured on a TopCounter (Packard) in SPC (single photon counting) mode.

T1 sequence (O60896 24-148): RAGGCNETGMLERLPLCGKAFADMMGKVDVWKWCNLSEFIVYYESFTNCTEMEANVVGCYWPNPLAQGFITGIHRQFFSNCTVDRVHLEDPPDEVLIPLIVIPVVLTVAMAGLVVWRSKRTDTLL
T1 sequence (P30988 25-474): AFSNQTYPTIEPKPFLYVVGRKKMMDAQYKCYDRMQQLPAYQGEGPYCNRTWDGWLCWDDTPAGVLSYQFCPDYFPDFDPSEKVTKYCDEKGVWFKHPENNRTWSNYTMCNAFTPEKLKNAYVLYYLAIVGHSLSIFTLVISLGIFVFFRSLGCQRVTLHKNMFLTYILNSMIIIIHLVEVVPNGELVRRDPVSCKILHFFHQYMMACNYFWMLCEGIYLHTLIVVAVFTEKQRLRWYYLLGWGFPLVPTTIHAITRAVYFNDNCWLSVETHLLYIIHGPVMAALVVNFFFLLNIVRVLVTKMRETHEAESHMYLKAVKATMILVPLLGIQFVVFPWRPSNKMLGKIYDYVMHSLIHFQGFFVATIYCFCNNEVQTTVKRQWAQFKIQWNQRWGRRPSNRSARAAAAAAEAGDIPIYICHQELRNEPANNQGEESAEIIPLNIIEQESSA

| SMILES | pEC50 |
| --- | --- |
| CC[C@H](C)[C@H](NC(=O)[C@@H]1CCCN1C(=O)CNC(=O)[C@H](Cc1ccccc1)NC(=O)[C@H](CC(N)=O)NC(=O)[C@H](CC(N)=O)NC(=O)[C@H](CO)NC(=O)[C@H](CO)NC(=O)[C@H](Cc1c[nH]cn1)NC(=O)[C@H](CCCNC(=N)N)NC(=O)[C@H](CC(C)C)NC(=O)[C@H](Cc1ccccc1)NC(=O)[C@H](CC(N)=O)NC(=O)[C@H](C)NC(=O)[C@H](CC(C)C)NC(=O)[C@H](CCCNC(=N)N)NC(=O)[C@H](CCC(N)=O)NC(=O)[C@@H](NC(=O)[C@H](C)NC(=O)[C@@H]1CSSC[C@H](NC(=O)[C@H](CCCNC(=N)N)NC(=O)[C@H](Cc2c[nH]cn2)NC(=O)[C@H](Cc2c[nH]cn2)NC(=O)[C@H](CCC(=O)O)NC(=O)CC[C@H](NC(=O)CCCCCCCCCCCCCCCCCCC(=O)O)C(=O)O)C(=O)N[C@@H](CC(N)=O)C(=O)N[C@@H]([C@@H](C)O)C(=O)N[C@@H](C)C(=O)N[C@@H]([C@@H](C)O)C(=O)N1)[C@@H](C)O)C(=O)N[C@@H](CC(C)C)C(=O)N1CCC[C@H]1C(=O)N1CCC[C@H]1C(=O)N[C@H](C(=O)N[C@@H](CC(N)=O)C(=O)N[C@H](C(=O)NCC(=O)N[C@@H](CO)C(=O)N[C@@H](CC(N)=O)C(=O)N[C@H](C(=O)N[C@@H](Cc1ccc(O)cc1)C(N)=O)[C@@H](C)O)C(C)C)[C@@H](C)O [Example 58, N-alpha-[(S)-4-Carboxy-4-(19-carboxynonadecanoylamino)butyryl]-Glu-His-His-[Arg1,Arg17]-pramlintide] ({C20 diacid-γGlu}-EHHRCNTATCATQRLANFLRHSSNNFGPILPPTNVGSNTY-NH2; disulfide 5-10) | 9.70 |
| CC(C)C[C@H](NC(=O)[C@H](CCCNC(=N)N)NC(=O)[C@H](CCC(N)=O)NC(=O)[C@@H](NC(=O)[C@H](C)NC(=O)[C@@H]1CSSC[C@H](NC(=O)[C@H](CCC(=O)O)NC(=O)[C@H](CCCNC(=N)N)NC(=O)[C@H](CCC(=O)O)NC(=O)CC[C@H](NC(=O)CCCCCCCCCCCCCCCCCCC(=O)O)C(=O)O)C(=O)N[C@@H](CC(N)=O)C(=O)N[C@@H]([C@@H](C)O)C(=O)N[C@@H](C)C(=O)N[C@@H]([C@@H](C)O)C(=O)N1)[C@@H](C)O)C(=O)N[C@@H](C)C(=O)N[C@@H](CC(=O)O)C(=O)N[C@@H](Cc1ccccc1)C(=O)N[C@@H](CC(C)C)C(=O)N[C@@H](Cc1c[nH]cn1)C(=O)N[C@@H](Cc1c[nH]cn1)C(=O)N[C@@H](CO)C(=O)N[C@@H](CO)C(=O)N[C@@H](CC(N)=O)C(=O)N[C@@H](CC(N)=O)C(=O)N[C@@H](Cc1ccccc1)C(=O)NCC(=O)N[C@@H](C)C(=O)N1CCC[C@H]1C(=O)N[C@@H](CC(C)C)C(=O)N[C@@H](CO)C(=O)N[C@@H](CO)C(=O)N[C@H](C(=O)N[C@@H](CC(N)=O)C(=O)N[C@H](C(=O)NCC(=O)N[C@@H](CO)C(=O)N[C@@H](CC(N)=O)C(=O)N[C@H](C(=O)N[C@@H](Cc1ccc(O)cc1)C(N)=O)[C@@H](C)O)C(C)C)[C@@H](C)O [Example 42, N-alpha-[(S)-4-Carboxy-4-(19-carboxynonadecanoylamino)butyryl]-Glu-Arg-[Glu1,Asp14,His17,Ala25,Pro26,Ser28,Ser29]-pramlintide] ({C20 diacid-γGlu}-ERECNTATCATQRLADFLHHSSNNFGAPLSSTNVGSNTY-NH2; disulfide 4-9) | 9.22 |
